Experimental data reported in US20240116985A1, “STAPLED PEPTIDES AND METHODS THEREOF” (priority 2020, published 2024).
In brackets after ≈: the same amount, converted by molar mass. Read-outs that look alike come from different tables or passages of the source.

Key:
CHI Log D procedure = type: physicochemical; conditions: pH 7.4, CHI Log D
Solubility in PBS = type: physicochemical
Outline: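 Solubility is derived from HPLC peak areas: the ratio of the PBS supernatant peak to a 50 μM DMSO peptide peak, times 50 uM.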

[1] = test system: TCF/LEF luciferase Reporter in DLD1 cells; assay: TCF reporter assay (DLD1 TCF/LEF luciferase reporter, Bright-Glo); type: cell-based
Outline: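 DLD1 cells stably carrying a TCF/LEF luciferase reporter were plated at 5000 cells/well in RPMI + 4% FBS and treated overnight with a 1:2 compound dilution series. Bright-Glo luminescence read on day 3; viability by CellTiter-Glo. Absolute IC50 determined.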

[2] = target: T1, full-length beta-Catenin (Uniprot ID P35222) (Homo sapiens, UniProt P35222); assay: Fluorescence polarization IC50 (beta-catenin / 5FAM-TCF4 10-53 competition); type: binding; conditions: read-out: beta-Catenin FP IC50
T1 construct: 10 nM full-length beta-Catenin (Uniprot ID P35222)
T1 sequence (P35222 1-781): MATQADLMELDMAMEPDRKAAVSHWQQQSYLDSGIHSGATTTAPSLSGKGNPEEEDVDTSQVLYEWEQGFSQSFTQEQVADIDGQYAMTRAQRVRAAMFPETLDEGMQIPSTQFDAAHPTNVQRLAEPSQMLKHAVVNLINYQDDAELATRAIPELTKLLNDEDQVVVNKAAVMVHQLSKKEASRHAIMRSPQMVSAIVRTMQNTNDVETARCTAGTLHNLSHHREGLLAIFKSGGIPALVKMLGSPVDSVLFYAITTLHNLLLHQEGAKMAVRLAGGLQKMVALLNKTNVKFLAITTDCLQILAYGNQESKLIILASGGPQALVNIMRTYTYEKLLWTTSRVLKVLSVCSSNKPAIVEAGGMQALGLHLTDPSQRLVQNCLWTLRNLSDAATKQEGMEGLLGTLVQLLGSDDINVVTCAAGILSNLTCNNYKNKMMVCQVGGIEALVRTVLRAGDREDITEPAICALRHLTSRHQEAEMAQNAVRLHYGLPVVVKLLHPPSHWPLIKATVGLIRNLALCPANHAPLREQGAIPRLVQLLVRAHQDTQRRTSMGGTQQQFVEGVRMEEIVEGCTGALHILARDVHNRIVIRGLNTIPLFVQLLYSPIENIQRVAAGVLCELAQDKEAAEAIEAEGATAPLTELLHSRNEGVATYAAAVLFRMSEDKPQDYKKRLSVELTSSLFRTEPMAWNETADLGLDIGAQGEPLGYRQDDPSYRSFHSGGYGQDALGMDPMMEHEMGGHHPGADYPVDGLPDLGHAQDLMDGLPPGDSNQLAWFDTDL

[3] = target: T2, beta-catenin/TCF4 engagement (Homo sapiens, UniProt P35222); assay: Nano-BRET target engagement assay (B-cat-Halo & TCF4-Luc in HEK293 cells); type: cell-based; conditions: absolute IC50; read-out: NanoBRET Abs IC50
T2 construct: expressed in transfected cells; host or cells: HEK293
T2 sequence (P35222 1-781): T1 sequence (P35222 1-781)

[4] = absolute IC50, read-out: DLD1 reporter assay Abs IC50
[5] = read-out: DLD1 4% Abs IC50, DLD1 4%

| Compound | chromatographic logD (CHI Log D procedure) | Solubility (Solubility in PBS; Solubility (uM)) [µM] | IC50 [1, 4] [µM] | IC50 [1, 5] [µM] | IC50 [2] [µM] | IC50 [3] [µM] | Solubility (Solubility in PBS) [µM] |
| --- | --- | --- | --- | --- | --- | --- | --- |
| CC(=O)N1CCC[C@]12CC=CCCCC1(CCCC=CCCCOC(=O)N3CC[C@@](C(=O)N[C@@H](Cc4ccccc4Cl)C(=O)N[C@@H](Cc4csc5ccccc45)C(=O)N[C@@H](CCC(N)=O)C(N)=O)(C3)NC(=O)[C@H](CC(N)=O)NC(=O)[C@H](Cc3ccccc3)NC(=O)[C@H](C)NC(=O)[C@H](Cc3ccccc3)NC(=O)[C@H](CN(CC(=O)O)CC(F)(F)F)NC(=O)[C@H](CC(=O)O)NC1=O)NC(=O)[C@H](CC(C)(C)C)NC(=O)[C@H](CC(=O)O)NC2=O (stereo partly drawn) [I-1008, Ac-PL3-Asp-Npg-B5-Asp-TfeGA-Phe-Ala-Phe-Asn-PyrS2-2C1F-BztA-Gln-NH2] | 2.43 | 34 (≈ 72.5 µg/mL) | 13 | 4.7 | 0.009 | 14 |  |
| CC(=O)N1CCC[C@]12CC=CCCCC1(CCCC=CCCCOC(=O)N3CC[C@@](C(=O)N[C@@H](Cc4ccccc4Cl)C(=O)N[C@@H](Cc4csc5ccccc45)C(=O)N[C@@H](CCC(N)=O)C(N)=O)(C3)NC(=O)[C@H](CC(N)=O)NC(=O)[C@H](Cc3ccccc3)NC(=O)[C@H](C)NC(=O)[C@H](CCCCN)NC(=O)[C@H](CN(CC(=O)O)CC(F)(F)F)NC(=O)[C@H](CC(=O)O)NC1=O)NC(=O)[C@H](CC(C)(C)C)NC(=O)[C@H](CC(=O)O)NC2=O (stereo partly drawn) [I-1011, Ac-PL3-Asp-Npg-B5-Asp-TfeGA-Lys-Ala-Phe-Asn-PyrS2-2C1F-BztA-Gln-NH2] | 2.03 | 23 (≈ 48.6 µg/mL) | > 20 |  | 0.005 | 20.8 |  |
| CC(=O)N1CCC[C@]12CC=CCCCC1(CCCC=CCCCOC(=O)N3CC[C@@](C(=O)N[C@@H](Cc4ccccc4Cl)C(=O)N[C@@H](Cc4csc5ccccc45)C(=O)N[C@@H](CO)C(N)=O)(C3)NC(=O)[C@H]([C@@H](C)O)NC(=O)[C@H](Cc3ccccc3)NC(=O)[C@H](C)NC(=O)[C@H](C)NC(=O)[C@H](CC(=O)O)NC(=O)[C@H](CC(=O)O)NC1=O)NC(=O)[C@H](CC(C)(C)C)NC(=O)[C@H](CC(=O)O)NC2=O (stereo partly drawn) [I-1015, Ac-PL3-Asp-Npg-B5-Asp-Asp-Ala-Ala-Phe-Thr-PyrS2-2C1F-BztA-Ser-NH2] | 2.27 | 47 (≈ 88.9 µg/mL) | 9 | 5.7 | 0.005 | 8.9 |  |
| CC(=O)N1CCC[C@]12CC=CCCCC1(CCCC=CCCCOC(=O)N3CC[C@@](C(=O)N[C@@H](Cc4ccccc4Cl)C(=O)N[C@@H](Cc4csc5ccccc45)C(=O)N[C@@H](CO)C(N)=O)(C3)NC(=O)[C@H]([C@@H](C)O)NC(=O)[C@H](Cc3ccccc3)NC(=O)[C@H](C)NC(=O)[C@H](C)NC(=O)[C@H](CC(N)=O)NC(=O)[C@H](CC(=O)O)NC1=O)NC(=O)[C@H](CC(C)(C)C)NC(=O)[C@H](CC(=O)O)NC2=O (stereo partly drawn) [I-1016, Ac-PL3-Asp-Npg-B5-Asp-Asn-Ala-Ala-Phe-Thr-PyrS2-2ClF-BztA-Ser-NH2] | 2.38 |  | 21.4 |  | 0.008 | 21.4 | 10 (≈ 18.9 µg/mL) |
| CC(=O)N1CCC[C@]12CC=CCCCC1(CCCC=CCCCOC(=O)N3CC[C@@](C(=O)N[C@@H](Cc4ccccc4Cl)C(=O)N[C@@H](Cc4csc5ccccc45)C(=O)N[C@@H](CCC(N)=O)C(N)=O)(C3)NC(=O)[C@H](CO)NC(=O)[C@H](Cc3ccccc3)NC(=O)[C@H](C)NC(=O)[C@H](C)NC(=O)[C@H](CC(=O)O)NC(=O)[C@H](CC(=O)O)NC1=O)NC(=O)[C@H](CC(C)(C)C)NC(=O)[C@H](CC(=O)O)NC2=O (stereo partly drawn) [I-1017, Ac-PL3-Asp-Npg-B5-Asp-Asp-Ala-Ala-Phe-Ser-PyrS2-2C1F-BztA-Gln-NH2] | 2.11 | 48 (≈ 92.1 µg/mL) | > 20 |  | 0.005 | 8.9 |  |
| CC(=O)N1CCC[C@]12CC=CCCCC1(CCCC=CCCCOC(=O)N3CC[C@@](C(=O)N[C@@H](Cc4ccccc4Cl)C(=O)N[C@@H](Cc4csc5ccccc45)C(=O)N[C@@H](CO)C(N)=O)(C3)NC(=O)[C@H](CO)NC(=O)[C@H](Cc3ccccc3)NC(=O)[C@H](C)NC(=O)[C@H](C)NC(=O)[C@H](CC(=O)O)NC(=O)[C@H](CC(=O)O)NC1=O)NC(=O)[C@H](CC(C)(C)C)NC(=O)[C@H](CC(=O)O)NC2=O (stereo partly drawn) [I-1019, Ac-PL3-Asp-Npg-B5-Asp-Asp-Ala-Ala-Phe-Ser-PyrS2-2C1F-BztA-Ser-NH2] | 2.22 | 48 (≈ 90.2 µg/mL) | 8.3 | 7.8 | 0.005 | 9.6 |  |

Second part, the compound after the results:

| chromatographic logD (CHI Log D procedure) | Solubility (Solubility in PBS; Solubility (uM)) [µM] | IC50 [1, 4] [µM] | IC50 [1, 5] [µM] | IC50 [2] [µM] | IC50 [3] [µM] | Solubility (Solubility in PBS) [µM] | Compound |
| --- | --- | --- | --- | --- | --- | --- | --- |
| 2.4 |  | 6.4 | 3.6 | 0.013 | 8.7 | 10 (≈ 19.2 µg/mL) | CC(=O)N1CCC[C@]12CC=CCCCC1(CCCC=CCCCOC(=O)N3CC[C@@](C(=O)N[C@@H](Cc4ccccc4Cl)C(=O)N[C@@H](Cc4csc5ccccc45)C(=O)N[C@@H](C(N)=O)[C@H](C)O)(C3)NC(=O)[C@H](CC(N)=O)NC(=O)[C@H](Cc3ccccc3)NC(=O)[C@H](C)NC(=O)[C@H](C)NC(=O)[C@H](CC(=O)O)NC(=O)[C@H](CC(=O)O)NC1=O)NC(=O)[C@H](CC(C)(C)C)NC(=O)[C@H](CC(=O)O)NC2=O (stereo partly drawn) [I-1028, Ac-PL3-Asp-Npg-B5-Asp-Asp-Ala-Ala-Phe-Asn-PyrS2-2C1F-BztA-dThr-NH2] |
| 2.36 | 49 (≈ 94.7 µg/mL) | > 20 |  | 0.823 | > 20 |  | CC(=O)N1CCC[C@]12CC=CCCCC1(CCCC=CCCCOC(=O)N3CC[C@@](C(=O)N[C@@H](Cc4ccccc4Cl)C(=O)N[C@@H](Cc4csc5ccccc45)C(=O)N[C@@H](C(N)=O)[C@H](C)O)(C3)NC(=O)[C@H](CC(N)=O)NC(=O)[C@H](Cc3ccccc3)NC(=O)[C@H](C)NC(=O)[C@H](C)NC(=O)[C@H](CC(=O)O)NC(=O)[C@H](CC(=O)O)NC1=O)NC(=O)[C@H](CC(C)(C)C)NC(=O)[C@H](CCC(=O)O)NC2=O (stereo partly drawn) [I-1029, Ac-PL3-Glu-Npg-B5-Asp-Asp-Ala-Ala-Phe-Asn-PyrS2-2C1F-BztA-dThr-NH2] |
| 2.76 | 47 (≈ 90.9 µg/mL) | > 20 |  | 0.507 | > 20 |  | CC(=O)N1CCC[C@]12CC=CCCCC1(CCCC=CCCCOC(=O)N3CC[C@@](C(=O)N[C@@H](Cc4ccccc4Cl)C(=O)N[C@@H](Cc4csc5ccccc45)C(=O)N[C@@H](C(N)=O)[C@H](C)O)(C3)NC(=O)[C@H](CC(N)=O)NC(=O)[C@H](Cc3ccccc3)NC(=O)[C@H](C)NC(=O)[C@H](C)NC(=O)[C@H](CC(=O)O)NC(=O)[C@H](CCC(=O)O)NC1=O)NC(=O)[C@H](CC(C)(C)C)NC(=O)[C@H](CC(=O)O)NC2=O (stereo partly drawn) [I-1030, Ac-PL3-Asp-Npg-B5-Glu-Asp-Ala-Ala-Phe-Asn-PyrS2-2C1F-BztA-dThr-NH2] |
| 2.71 | 12 (≈ 23.4 µg/mL) | 11.9 | 4 | 0.027 | 9.5 |  | CC(=O)N1CCC[C@]12CC=CCCCC1(CCCC=CCCCOC(=O)N3CC[C@@](C(=O)N[C@@H](Cc4ccccc4Cl)C(=O)N[C@@H](Cc4csc5ccccc45)C(=O)N[C@@H](C(N)=O)[C@H](C)O)(C3)NC(=O)[C@H](Cc3ccccc3)NC(=O)[C@H](Cc3ccccc3)NC(=O)[C@H](C)NC(=O)[C@H](C)NC(=O)[C@H](CC(=O)O)NC(=O)[C@H](CC(=O)O)NC1=O)NC(=O)[C@H](CC(C)(C)C)NC(=O)[C@H](CC(=O)O)NC2=O (stereo partly drawn) [I-1034, Ac-PL3-Asp-Npg-B5-Asp-Asp-Ala-Ala-Phe-Phe-PyrS2-2C1F-BztA-dThr-NH2] |
